Experimental findings from patent publication US6340694B1, “Diarylbenzopyran derivatives as cyclooxygenase-2 inhibitors” (Pacific Corporation, priority 1998, dated 2002) are described below.

One data set concerns the target T1, COX-1 (Mus musculus, UniProt P22437).
T1 construct: there is no pre-treatment of aspirin and LPS in the adhesion of macrophage; endogenous in cells; host or cells: peritoneal macrophages of C57BL/6 mouse, without aspirin and LPS pre-treatment
T1 sequence (P22437 27-602): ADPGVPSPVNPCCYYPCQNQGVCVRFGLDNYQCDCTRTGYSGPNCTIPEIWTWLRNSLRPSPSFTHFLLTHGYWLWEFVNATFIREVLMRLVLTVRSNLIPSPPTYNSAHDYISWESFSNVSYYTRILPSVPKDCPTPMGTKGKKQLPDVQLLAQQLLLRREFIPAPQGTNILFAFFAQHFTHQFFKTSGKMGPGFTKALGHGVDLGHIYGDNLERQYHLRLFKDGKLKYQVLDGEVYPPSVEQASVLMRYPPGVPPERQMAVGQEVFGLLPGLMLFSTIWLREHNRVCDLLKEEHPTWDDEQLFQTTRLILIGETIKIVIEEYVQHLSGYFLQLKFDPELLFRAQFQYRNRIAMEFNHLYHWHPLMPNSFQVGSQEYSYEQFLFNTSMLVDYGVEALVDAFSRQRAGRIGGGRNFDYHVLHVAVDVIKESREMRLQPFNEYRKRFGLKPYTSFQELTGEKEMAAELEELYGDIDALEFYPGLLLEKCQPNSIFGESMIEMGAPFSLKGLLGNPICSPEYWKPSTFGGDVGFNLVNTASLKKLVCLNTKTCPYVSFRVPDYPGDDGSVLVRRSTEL
Put plainly: Evaluation of COX-1's inhibition efficacy (macrophages without aspirin and LPS pre-treatment). It counts as cell-based, C57BL/6 mouse. The following applies: for inhibition at 10 µg/mL: 10 μg/ml; for inhibition at 1 µg/mL: 1 μg/ml. The method, then: Regarding the compounds in the above Examples and indomethacin, the inhibition efficacy of COX-2 and COX-1 are being measured by the following two methods.
After cleaning C57BL/6 mouse's abdomen by 70% EtOH, the skin of mouse's abdomen was eliminated cautiously not to harm peritomeum and 5 ml of cold PBS was poured into the abdominal cavity and in certain times later macrophage-bleeding abdominal-liquid was collected by syringe. By adding RPMI-1640 badge containing penicillin(100 unit/mt) and streptomycin([…]) to cell pellet obtained by centrifugation of collected liquid about 5 minutes in 1500 rpm, it was disperesed and also COX-1 existing in the cell was inactivated by treating with 500 μM aspirin. After putting 1 ml cell suspension having cell number of 1×10^6 cells/mu into each 24-well microtiter plates, macrophages were adhered to the bottom of plate by culturing in the condition of 5% CO2/95% O2, at a temperature of 37° C. for 2 hours. Other cells not being adhered to were eliminated by washing two times with PBS. The purity of macrophages obtained through this process was identified by differential counting. After adding RPMI-1640 badge(normally 5×10^5 cell/ml) containing 3% right fetal blood serum to macrophage and treating it with LPS(lipopolysaccharide) to make final concentration as 10 μg/ml, it was cultured in the condition of 5% CO2, at a temperature of 37° C. for 16 hours. After inducing COX-2 by LPS, the cell culture medium was eliminated and macrophages was washed two times with PBS. And 1 ml of RRPI-1640 badge was added to each well again and after treating them with sample with appropriate concentration, they were cultured at a temperature of 37i É for 10 minutes. And then treated them with arachidonic acid to make their final concentration as 10 μM and cultured them additional 10 minutes, all the supernatant liquid of reaction was obtained. The amount of PGE2 produced in the supernatant liquid of reaction was determined by the PGE2 radioimmuno assay. The 100% COX-2's activation is referenced by the difference of the amount of PGE2 produced in the supernatant liquid of reaction between with 10 μM arachidonic acid treatment and without 10 μM arachidonic acid treatment.
2. Evaluation of COX-1's Inhibition Efficacy
Following the same procedure as the above evaluation of COX-2's inhibition efficacy, but there is no pre-treatment of aspirin and LPS in the adhesion of macrophage.

The next data set has as its target T2, COX-2 (Mus musculus, UniProt Q05769).
T2 construct: endogenous in cells; host or cells: peritoneal macrophages of C57BL/6 mouse, aspirin-pretreated, LPS-induced
T2 sequence (Q05769 18-604): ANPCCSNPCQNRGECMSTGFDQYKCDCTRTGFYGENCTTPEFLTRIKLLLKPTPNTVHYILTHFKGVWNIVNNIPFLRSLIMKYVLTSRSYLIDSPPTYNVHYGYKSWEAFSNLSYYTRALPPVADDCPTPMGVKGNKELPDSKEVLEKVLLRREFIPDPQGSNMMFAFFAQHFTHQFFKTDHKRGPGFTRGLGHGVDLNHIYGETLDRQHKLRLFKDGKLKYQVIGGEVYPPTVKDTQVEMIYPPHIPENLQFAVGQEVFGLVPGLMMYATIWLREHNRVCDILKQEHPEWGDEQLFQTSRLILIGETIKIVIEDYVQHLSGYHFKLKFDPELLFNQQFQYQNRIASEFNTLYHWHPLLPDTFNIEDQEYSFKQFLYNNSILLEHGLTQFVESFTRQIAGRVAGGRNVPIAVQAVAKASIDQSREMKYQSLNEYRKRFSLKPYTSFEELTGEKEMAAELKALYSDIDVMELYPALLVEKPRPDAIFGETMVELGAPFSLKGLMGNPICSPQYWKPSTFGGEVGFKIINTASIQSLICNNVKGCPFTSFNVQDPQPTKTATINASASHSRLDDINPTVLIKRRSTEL
Put plainly: Evaluation of COX-2's inhibition efficacy (PGE2 radioimmuno assay, LPS-induced, aspirin-pretreated peritoneal macrophages). Format: cell-based, C57BL/6 mouse. The conditions noted are these: for inhibition at 10 µg/mL: 10 μg/ml; for inhibition at 1 µg/mL: 1 μg/ml; for inhibition at 0.1 µg/mL: 0.1 μg/ml. The procedure:
Regarding the compounds in the above Examples and indomethacin, the inhibition efficacy of COX-2 and COX-1 are being measured by the following two methods. […] Evaluation of COX-2's Inhibition Efficacy (J. Pharmacol. Exp. […] After cleaning C57BL/6 mouse's abdomen by 70% EtOH, the skin of mouse's abdomen was eliminated cautiously not to harm peritomeum and 5 ml of cold PBS was poured into the abdominal cavity and in certain times later macrophage-bleeding abdominal-liquid was collected by syringe. […] After putting 1 ml cell suspension having cell number of 1×10^6 cells/mu into each 24-well microtiter plates, macrophages were adhered to the bottom of plate by culturing in the condition of 5% CO2/95% O2, at a temperature of 37° C. for 2 hours. Other cells not being adhered to were eliminated by washing two times with PBS. The purity of macrophages obtained through this process was identified by differential counting. […] After inducing COX-2 by LPS, the cell culture medium was eliminated and macrophages was washed two times with PBS. And 1 ml of RRPI-1640 badge was added to each well again and after treating them with sample with appropriate concentration, they were cultured at a temperature of 37i É for 10 minutes. And then treated them with arachidonic acid to make their final concentration as 10 μM and cultured them additional 10 minutes, all the supernatant liquid of reaction was obtained. The amount of PGE2 produced in the supernatant liquid of reaction was determined by the PGE2 radioimmuno assay.

Where only a bound is given, the exact number is not on record here.

Consider `CS(=O)(=O)c1ccc(-c2oc3ccccc3c(=O)c2-c2cccc([N+](=O)[O-])c2)cc1` [Example 4, 2-(4-(methylsulfonyl)phenyl)-3-(3-nitrophenyl)-4H-1-benzopyran-4-one], for which the melting point is 223 to 224 °C. For the same compound, the inhibition at 10 µg/mL on COX-1 was under 5%. On COX-2, the inhibition at 10 µg/mL is under 5%.

For the compound `CS(=O)(=O)c1ccc(-c2oc3ccccc3c(=O)c2-c2ccc(C=O)cc2)cc1` [Example 9, 3-(4-Formylphenyl)-2-(4-(methylsulfonyl)phenyl)-4H-1-benzopyran-4-one], the melting point lay in the range of 189 to 190 °C. In addition, the inhibition at 10 µg/mL on COX-1 was under 5%. In addition, on COX-2, the inhibition at 1 µg/mL is under 5% and the inhibition at 10 µg/mL was determined as 29%.

With `CS(=O)(=O)c1ccc(-c2oc3ccccc3c(=O)c2-c2ccncc2)cc1` [Example 16, 2-(4-(Methylsulfonyl)phenyl)-3-(4-pyridinyl)-4H-1-benzopyran-4-one], the melting point lay within 204 to 205 °C. Also, the inhibition at 10 µg/mL on COX-1 was under 5%. Further, the inhibition at 10 µg/mL on COX-2 was determined as 24%.

As to `Cn1ccc(-c2c(-c3ccc(S(C)(=O)=O)cc3)oc3ccccc3c2=O)n1` [Example 17, 3-(N-methyl-3-pyrazolyl)-2-(4-(methylsulfonyl)phenyl)-4H-1-benzopyran-4-one], the melting point is 202 to 203 °C. Also, the inhibition at 10 µg/mL on COX-1 was under 5%. At COX-2, the inhibition at 10 µg/mL was determined as 13%.

In the case of `COc1ccc(-c2c(-c3ccc(S(C)(=O)=O)cc3)oc3ccccc3c2=O)cn1` [Example 18, 3-(2-Methoxy-5-pyridinyl)-2-(4-(methylsulfonyl)phenyl)-4H-1-benzopyran-4-one], the melting point is 226 to 227 °C. Moreover, at COX-1, the inhibition at 10 µg/mL was 18%. Further, on COX-2, the inhibition at 1 µg/mL was found to be 51% and the inhibition at 10 µg/mL came to 86%.

On to `CS(=O)(=O)c1ccc(-c2oc3ccccc3c(=O)c2-c2cncc(Br)c2)cc1` [Example 19, 3-(5-Bromo-3-pyridinyl)-2-(4-(methylsulfonyl)phenyl)-4H-1-benzopyran-4-one], for which the melting point is 197 to 199 °C. The inhibition at 10 µg/mL on COX-1 stood at 11%. Also, at COX-2, the inhibition at 1 µg/mL was determined as 18% and the inhibition at 10 µg/mL was 35%.

The compound `Cc1ccc(-c2c(-c3ccc(S(C)(=O)=O)cc3)oc3ccccc3c2=O)cn1` [Example 20, 3-(2-Methyl-5-pyridinyl)-2-(4-(methylsulfonyl)phenyl)-4H-1-benzopyran-4-one] displayed a melting point of 195 to 196 °C. Further, on COX-1, the inhibition at 10 µg/mL was under 5%. Besides, on COX-2, the inhibition at 1 µg/mL is under 5% and the inhibition at 10 µg/mL turned out to be 85%.

Compound `CS(=O)(=O)c1ccc(-c2oc3ccccc3c(=O)c2-c2ccc(C(F)(F)F)nc2)cc1` [Example 21, 2-(4-(Methylsulfonyl)phenyl)-3-(2-trifluoromethyl-5-pyridinyl)-4H-1-benzopyran-4-one] gave a melting point of 215 to 217 °C. Also, at COX-1, the inhibition at 10 µg/mL is under 5%. Further, at COX-2, the inhibition at 1 µg/mL stood at 35% and the inhibition at 10 µg/mL was determined as 55%.

In the case of `CS(=O)(=O)c1ccc(-c2oc3ccccc3c(=S)c2-c2cccc(Cl)c2)cc1` [Example 40, 3-(3-Chlorophenyl)-2-(4-(methylsulfonyl)phenyl)-4H-1-benzopyran-4-thione], the melting point was in the range of 196 to 198 °C. The inhibition at 10 µg/mL on COX-1 is under 5%. On COX-2, the inhibition at 0.1 µg/mL was 6%, the inhibition at 1 µg/mL turned out to be 29% and the inhibition at 10 µg/mL was determined as 69%.

`Cc1ccccc1-c1c(-c2ccc(S(C)(=O)=O)cc2)oc2ccccc2c1=S` [Example 41, 3-(2-Methylphenyl)-2-(4-(methylsulfonyl)phenyl)-4H-1-benzopyran-4-thione]: the melting point came out at 234 °C. Also, the inhibition at 10 µg/mL on COX-1 is under 5%. At COX-2, the inhibition at 0.1 µg/mL was under 5%, the inhibition at 1 µg/mL came to 36% and the inhibition at 10 µg/mL was determined as 96%.

Take `NS(=O)(=O)c1ccc(-c2oc3ccc(F)cc3c(=O)c2-c2ccc(F)cc2)cc1` [Example 48, 2-(4-(Aminosulfonyl)phenyl)-6-fluoro-3-(4-fluorophenyl)-4H-1-benzopyran-4-one]: the melting point lay within 224 to 226 °C. On COX-1, the inhibition at 1 µg/mL worked out at 36% and the inhibition at 10 µg/mL worked out at 48%. Besides, on COX-2, the inhibition at 0.1 µg/mL stood at 63% and the inhibition at 1 µg/mL was determined as 100%.

Compound `NS(=O)(=O)c1ccc(-c2oc3ccc(F)cc3c(=O)c2-c2cccc(F)c2)cc1` [Example 51, 2-(4-(Aminosulfonyl)phenyl)-6-fluoro-3-(3-fluorophenyl)-4H-1-benzopyran-4-one] displayed a melting point of 257 to 258 °C. In addition, the inhibition at 10 µg/mL on COX-1 amounted to 6%. Also, at COX-2, the inhibition at 0.1 µg/mL was 56%, the inhibition at 1 µg/mL was determined as 83% and the inhibition at 10 µg/mL came out at 100%.

In turn, `NS(=O)(=O)c1ccc(-c2oc3ccccc3c(=O)c2-c2ccc(F)cc2)cc1` [Example 52, 2-(4-(Aminosulfonyl)phenyl)-3-(4-fluorophenyl)-4H-1-benzopyran-4-one] returned a melting point of 267 to 268 °C. At COX-1, the inhibition at 1 µg/mL came out at 62% and the inhibition at 10 µg/mL amounted to 67%. At COX-2, the inhibition at 0.1 µg/mL was found to be 73%, the inhibition at 1 µg/mL amounted to 96% and the inhibition at 10 µg/mL worked out at 99%.

The inhibition is the percentage by which the read-out fell short of the control. What is called melting point is the temperature, or range, at which the solid turns liquid.
